The values below come from patent US10815276B2, “Cell penetrating peptides and methods of making and using thereof” (Entrada Therapeutics, Inc., priority 2014, dated 2020).

This test has as its target T1, Pin1 (Homo sapiens, UniProt Q13526, S16A/Y23A).
T1 construct: The full-length human S16A/Y23A mutant Pin1 was expressed and purified from E. coli; made in house
The test can be described thus: Pin1 binding by FA (FITC-labeled peptides). The following applies: for Kd: FITC-labeled peptide, FA, read-out: KD.

Molecules are shown by their SMILES. Starred links: 1 amine or outer side, 2 acyl side, 3 side chain; linkers in the order of their positions; H or OH if unused. Positions of bridges follow the written chain, without caps; N, C: chain ends. Non-standard residues stand in square brackets, D forms with d. Residues, ends and D or L forms follow the SMILES beside them. Trimesoyl = O=C(c1cc(C(=O)[*:2])cc(C(=O)[*:3])c1)[*:1]; Phe(4-Cl) = N[C@@H](Cc1ccc(Cl)cc1)C(=O)O; Phe(4-F) = N[C@@H](Cc1ccc(F)cc1)C(=O)O; dPhe(3-F) = N[C@H](Cc1cccc(F)c1)C(=O)O; 2Nal = N[C@@H](Cc1ccc2ccccc2c1)C(=O)O; dPhe(2-F) = N[C@H](Cc1ccccc1F)C(=O)O; Pip = O=C(O)[C@@H]1CCCCN1; Dap = NC[C@H](N)C(=O)O; Sar = CNCC(=O)O

T1 sequence (Q13526 whole entry S16A/Y23A): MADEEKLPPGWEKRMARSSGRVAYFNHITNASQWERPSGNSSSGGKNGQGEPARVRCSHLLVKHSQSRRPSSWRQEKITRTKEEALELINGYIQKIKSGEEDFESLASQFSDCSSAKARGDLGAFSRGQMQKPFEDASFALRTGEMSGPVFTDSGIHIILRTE

For orientation: Kd means the concentration at which binding is half-saturated. Turning to `C[C@@H]1NC(=O)[C@H](CCCNC(=N)N)NC(=O)[C@H](Cc2ccc3ccccc3c2)NC(=O)[C@@H]2CCCCN2C(=O)[C@@H]([C@H](C)O)NC(=O)[C@H](Cc2ccc(F)cc2)NC(=O)[C@@H](Cc2cccc(F)c2)NC(=O)c2cc3cc(c2)C(=O)NC[C@H](NC(=O)[C@@H](Cc2ccccc2)NC1=O)C(=O)N[C@@H](Cc1ccccc1)C(=O)N[C@@H](Cc1ccc2ccccc2c1)C(=O)N[C@@H](CCCNC(=N)N)C(=O)N[C@@H](CCCNC(=N)N)C(=O)N[C@@H](CCCNC(=N)N)C(=O)N[C@@H](CCCNC(=N)N)C(=O)N[C@H](C(=O)N[C@@H](CCCCN)C(N)=O)CNC3=O` [Peptide 36, bicyclo[Tm-(D-3-Fpa-Fpa-D-Thr-Pip-Nal-Arg-Ala-D-Phe)-Dap-(Phe-Nal-Arg-Arg-Arg-Arg-Dap)]-Lys] ([dPhe(3-F)][Phe(4-F)][dT][Pip][2Nal]RA[dF][Dap]F[2Nal]RRRR[Dap]K-NH2; linker N-9-16 via Trimesoyl; C-terminus assumed), the Kd is 390 ± 50 nM.
Same read-out and setting: to `C[C@H]1NC(=O)[C@H](Cc2ccc(O)cc2)NC(=O)[C@H](CCCNC(=N)N)NC(=O)[C@H](Cc2ccc3ccccc3c2)NC(=O)[C@@H]2CCCCN2C(=O)[C@@H](CC(=O)O)NC(=O)CN(C)C(=O)[C@@H]2CCCN2C(=O)c2cc3cc(c2)C(=O)NC[C@H](NC1=O)C(=O)N[C@@H](Cc1ccccc1)C(=O)N[C@@H](Cc1ccc2ccccc2c1)C(=O)N[C@@H](CCCNC(=N)N)C(=O)N[C@@H](CCCNC(=N)N)C(=O)N[C@@H](CCCNC(=N)N)C(=O)N[C@@H](CCCNC(=N)N)C(=O)N[C@H](C(=O)N[C@@H](CCCCN)C(N)=O)CNC3=O` [Peptide 17, bicyclo[Tm-(Pro-Sar-D-Asp-Pip-Nal-Arg-Tyr-D-Ala)-Dap-(Phe-Nal-Arg-Arg-Arg-Arg-Dap)]-Lys] (P[Sar][dD][Pip][2Nal]RY[dA][Dap]F[2Nal]RRRR[Dap]K-NH2; linker N-9-16 via Trimesoyl; C-terminus assumed) belongs 2170 ± 550 nM.
The same measure, in the same setting: to `C[C@@H]1NC(=O)[C@H](CCCNC(=N)N)NC(=O)[C@H](Cc2ccc3ccccc3c2)NC(=O)[C@@H]2CCCCN2C(=O)[C@@H]([C@H](C)O)NC(=O)[C@H](Cc2ccc(Cl)cc2)NC(=O)[C@@H](Cc2ccccc2)NC(=O)c2cc3cc(c2)C(=O)NC[C@H](NC(=O)[C@@H](Cc2ccccc2)NC1=O)C(=O)N[C@@H](Cc1ccccc1)C(=O)N[C@@H](Cc1ccc2ccccc2c1)C(=O)N[C@@H](CCCNC(=N)N)C(=O)N[C@@H](CCCNC(=N)N)C(=O)N[C@@H](CCCNC(=N)N)C(=O)N[C@@H](CCCNC(=N)N)C(=O)N[C@H](C(=O)N[C@@H](CCCCN)C(N)=O)CNC3=O` [Peptide 30, bicyclo[Tm-(D-Phe-4-ClPhe-D-Thr-Pip-Nal-Arg-Ala-D-Phe)-Dap-(Phe-Nal-Arg-Arg-Arg-Arg-Dap)]-Lys] ([dF][Phe(4-Cl)][dT][Pip][2Nal]RA[dF][Dap]F[2Nal]RRRR[Dap]K-NH2; linker N-9-16 via Trimesoyl; C-terminus assumed) belongs 780 ± 50 nM.
As for `C[C@@H]1NC(=O)[C@H](CCCNC(=N)N)NC(=O)[C@H](Cc2ccc3ccccc3c2)NC(=O)[C@@H]2CCCCN2C(=O)[C@@H]([C@H](C)O)NC(=O)[C@H](Cc2ccc(F)cc2)NC(=O)[C@@H](Cc2ccccc2)NC(=O)c2cc3cc(c2)C(=O)NC[C@H](NC(=O)[C@@H](Cc2ccccc2)NC1=O)C(=O)N[C@@H](Cc1ccccc1)C(=O)N[C@@H](Cc1ccc2ccccc2c1)C(=O)N[C@@H](CCCNC(=N)N)C(=O)N[C@@H](CCCNC(=N)N)C(=O)N[C@@H](CCCNC(=N)N)C(=O)N[C@@H](CCCNC(=N)N)C(=O)N[C@H](C(=O)N[C@@H](CCCCN)C(N)=O)CNC3=O` [Peptide 27, bicyclo[Tm-(D-Phe-4-Fpa-D-Thr-Pip-Nal-Arg-Ala-D-Phe)-Dap-(Phe-Nal-Arg-Arg-Arg-Arg-Dap)]-Lys] ([dF][Phe(4-F)][dT][Pip][2Nal]RA[dF][Dap]F[2Nal]RRRR[Dap]K-NH2; linker N-9-16 via Trimesoyl; C-terminus assumed), the equilibrium dissociation constant (Kd) came out at 270 nM. Moreover, the “Improvement of Pin1 binding by D-Phe for D-Ala vs parent peptide” value (peptide 22 vs 3, peptide 27 vs 4) is on record as ~2 fold.
For `C[C@@H]1NC(=O)[C@H](CCCNC(=N)N)NC(=O)[C@H](Cc2ccc3ccccc3c2)NC(=O)[C@@H]2CCCCN2C(=O)[C@@H]([C@H](C)O)NC(=O)[C@H](Cc2ccc(F)cc2)NC(=O)[C@@H](Cc2ccccc2F)NC(=O)c2cc3cc(c2)C(=O)NC[C@H](NC(=O)[C@@H](Cc2ccccc2)NC1=O)C(=O)N[C@@H](Cc1ccccc1)C(=O)N[C@@H](Cc1ccc2ccccc2c1)C(=O)N[C@@H](CCCNC(=N)N)C(=O)N[C@@H](CCCNC(=N)N)C(=O)N[C@@H](CCCNC(=N)N)C(=O)N[C@@H](CCCNC(=N)N)C(=O)N[C@H](C(=O)N[C@@H](CCCCN)C(N)=O)CNC3=O` [Peptide 35, bicyclo[Tm-(D-2-Fpa-Fpa-D-Thr-Pip-Nal-Arg-Ala-D-Phe)-Dap-(Phe-Nal-Arg-Arg-Arg-Arg-Dap)]-Lys] ([dPhe(2-F)][Phe(4-F)][dT][Pip][2Nal]RA[dF][Dap]F[2Nal]RRRR[Dap]K-NH2; linker N-9-16 via Trimesoyl; C-terminus assumed), the equilibrium dissociation constant (Kd) came to 590 ± 50 nM.
On to `C[C@@H]1NC(=O)[C@H](CCCNC(=N)N)NC(=O)[C@H](Cc2ccc3ccccc3c2)NC(=O)[C@@H]2CCCCN2C(=O)[C@@H]([C@H](C)O)NC(=O)[C@H](Cc2ccc(F)cc2)NC(=O)[C@@H](Cc2ccccc2)NC(=O)c2cc3cc(c2)C(=O)NC[C@H](NC(=O)[C@@H](Cc2ccccc2)NC1=O)C(=O)N[C@@H](CCCNC(=N)N)C(=O)N[C@@H](Cc1ccc2ccccc2c1)C(=O)N[C@@H](CCCNC(=N)N)C(=O)N[C@@H](Cc1ccccc1)C(=O)N[C@@H](CCCNC(=N)N)C(=O)N[C@@H](CCCNC(=N)N)C(=O)N[C@H](C(=O)N[C@@H](CCCCN)C(N)=O)CNC3=O` [Peptide 44, bicyclo[Tm-(D-Phe-Fpa-D-Thr-Pip-Nal-Arg-Ala-D-Phe)-Dap-(Arg-Nal-Arg-Phe-Arg-Arg-Dap)]-Lys] ([dF][Phe(4-F)][dT][Pip][2Nal]RA[dF][Dap]R[2Nal]RFRR[Dap]K-NH2; linker N-9-16 via Trimesoyl; C-terminus assumed), for which the Kd came to 450 ± 50 nM.
As to `C[C@H]1NC(=O)[C@H](CC(=O)O)NC(=O)[C@H](CCCNC(=N)N)NC(=O)[C@H](Cc2ccc3ccccc3c2)NC(=O)[C@@H]2CCCCN2C(=O)[C@@H](CC(=O)O)NC(=O)CN(C)C(=O)[C@@H]2CCCN2C(=O)c2cc3cc(c2)C(=O)NC[C@H](NC1=O)C(=O)N[C@@H](Cc1ccccc1)C(=O)N[C@@H](Cc1ccc2ccccc2c1)C(=O)N[C@@H](CCCNC(=N)N)C(=O)N[C@@H](CCCNC(=N)N)C(=O)N[C@@H](CCCNC(=N)N)C(=O)N[C@@H](CCCNC(=N)N)C(=O)N[C@H](C(=O)N[C@@H](CCCCN)C(N)=O)CNC3=O` [Peptide 20, bicyclo[Tm-(Pro-Sar-D-Asp-Pip-Nal-Arg-Asp-D-Ala)-Dap-(Phe-Nal-Arg-Arg-Arg-Arg-Dap)]-Lys] (P[Sar][dD][Pip][2Nal]RD[dA][Dap]F[2Nal]RRRR[Dap]K-NH2; linker N-9-16 via Trimesoyl; C-terminus assumed), the dissociation constant Kd came to 3190 ± 500 nM.
The same measure, in the same setting: under `C[C@@H]1NC(=O)[C@H](CCCNC(=N)N)NC(=O)[C@H](Cc2ccc3ccccc3c2)NC(=O)[C@@H]2CCCCN2C(=O)[C@@H]([C@H](C)O)NC(=O)[C@H](Cc2ccc(F)cc2)NC(=O)[C@@H](Cc2ccccc2)NC(=O)c2cc3cc(c2)C(=O)NC[C@H](NC(=O)[C@@H](Cc2ccccc2)NC1=O)C(=O)N[C@@H](CCCNC(=N)N)C(=O)N[C@@H](CCCNC(=N)N)C(=O)N[C@@H](Cc1ccc2ccccc2c1)C(=O)N[C@@H](Cc1ccccc1)C(=O)N[C@@H](CCCNC(=N)N)C(=O)N[C@@H](CCCNC(=N)N)C(=O)N[C@H](C(=O)N[C@@H](CCCCN)C(N)=O)CNC3=O` [Peptide 43, bicyclo[Tm-(D-Phe-Fpa-D-Thr-Pip-Nal-Arg-Ala-D-Phe)-Dap-(Arg-Arg-Nal-Phe-Arg-Arg-Dap)]-Lys] ([dF][Phe(4-F)][dT][Pip][2Nal]RA[dF][Dap]RR[2Nal]FRR[Dap]K-NH2; linker N-9-16 via Trimesoyl; C-terminus assumed) stands 1380 ± 160 nM; under `C[C@@H]1NC(=O)[C@H](CCCNC(=N)N)NC(=O)[C@H](Cc2ccc3ccccc3c2)NC(=O)[C@@H]2CCCCN2C(=O)[C@@H]([C@H](C)O)NC(=O)[C@H](Cc2ccccc2)NC(=O)[C@@H](Cc2ccccc2)NC(=O)c2cc3cc(c2)C(=O)NC[C@H](NC(=O)[C@@H](Cc2ccccc2)NC1=O)C(=O)N[C@@H](Cc1ccccc1)C(=O)N[C@@H](Cc1ccc2ccccc2c1)C(=O)N[C@@H](CCCNC(=N)N)C(=O)N[C@@H](CCCNC(=N)N)C(=O)N[C@@H](CCCNC(=N)N)C(=O)N[C@@H](CCCNC(=N)N)C(=O)N[C@H](C(=O)N[C@@H](CCCCN)C(N)=O)CNC3=O` [Peptide 28, bicyclo[Tm-(D-Phe-Phe-D-Thr-Pip-Nal-Arg-Ala-D-Phe)-Dap-(Phe-Nal-Arg-Arg-Arg-Arg-Dap)]-Lys] ([dF]F[dT][Pip][2Nal]RA[dF][Dap]F[2Nal]RRRR[Dap]K-NH2; linker N-9-16 via Trimesoyl; C-terminus assumed), 1260 ± 280 nM; under `C[C@@H]1NC(=O)[C@H](CCCNC(=N)N)NC(=O)[C@H](Cc2ccc3ccccc3c2)NC(=O)[C@@H]2CCCCN2C(=O)[C@@H]([C@H](C)O)NC(=O)[C@H](Cc2ccc(F)cc2)NC(=O)[C@@H](Cc2ccccc2)NC(=O)c2cc3cc(c2)C(=O)NC[C@H](NC(=O)[C@@H](Cc2ccccc2)NC1=O)C(=O)N[C@@H](CCCNC(=N)N)C(=O)N[C@@H](CCCNC(=N)N)C(=O)N[C@@H](CCCNC(=N)N)C(=O)N[C@@H](CCCNC(=N)N)C(=O)N[C@@H](Cc1ccc2ccccc2c1)C(=O)N[C@@H](Cc1ccccc1)C(=O)N[C@H](C(=O)N[C@@H](CCCCN)C(N)=O)CNC3=O` [Peptide 42, bicyclo[Tm-(D-Phe-Fpa-D-Thr-Pip-Nal-Arg-Ala-D-Phe)-Dap-(Arg-Arg-Arg-Arg-Nal-Phe-Dap)]-Lys] ([dF][Phe(4-F)][dT][Pip][2Nal]RA[dF][Dap]RRRR[2Nal]F[Dap]K-NH2; linker N-9-16 via Trimesoyl; C-terminus assumed), 980 ± 180 nM.
